Test results published in paper PMC5316400, “Validation of precision-cut liver slices to study drug-induced cholestasis: a transcriptomics approach” (Archives of Toxicology, 2016).

Legend:
[1] = test system: Genes involved in hepatic cholestasis pathway; test: Microarray gene expression in human PCLS exposed to cholestatic drugs: hepatic cholestasis pathway genes; settings: 30 μM; 24 h; 60 μM bile acid mix
Method: (§1) Precision-cut liver slices of 5 mm diameter and 250 μm thickness were prepared (de Graaf et al. [2010]). At this thickness, full penetration of substrates has been shown. PCLS were made using the Krumdieck tissue slicer (Alabama R&D, Munford, AL, USA) in ice-cold Krebs buffer at pH 7.42, enriched with glucose to a final concentration of 25 mM, saturated with carbogen (95 % O2/5 % CO2). Immediately after the slices were made, they were placed in ice-cold University of Wisconsin organ preservation solution (UW, Dupont Critical Care, Waukegan, IL, USA) and stored on ice until the beginning of the experiment. Slices were pre-incubated individually in 12-well plates in 1.3 ml of Williams Medium E with glutamax-1 (Gibco, Invitrogen, Paisley, Scotland) supplemented with 25 mM D-glucose and 50 μg/ml gentamycin (Gibco, Invitrogen, Paisley, Scotland). In the incubator (Sanyo CO2/O2 Incubator, PANASONIC, Secaucus, NJ, USA), the plates were gently shaken (90 times/min) for 1 h under 80 % O2 and 5 % CO2 atmosphere at 37 °C. This pre-incubation allows the slices to restore their ATP levels. […] The plates were incubated under the same conditions for 24 h. All incubation conditions were carried out in triplicate. Each experiment was performed in slices of 6 different human livers (Table 1). Slices were harvested for ATP assay in 100 mM Tris buffer with 2 mM EDTA and for RNA isolation in RNAlater. The bile acid mix was added to the medium in order to create an environment similar to the physiological concentration in the portal vein. The composition of the serum bile acids was according to Scherer et al. ([2009]). Pilot experiments were performed to find out the non-toxic concentration of the bile acid mix.
(§2) Maxwell® 16 LEV Total RNA purification kit (Promega, The Netherlands) with Maxwell® 16 LEV Instrument was used to isolate RNA from the samples. Immediately after isolation, the RNA quality was assessed by measuring the 260/280 and 260/230 ratios, and the concentration was measured with the ND-1000 spectrophotometer (Fisher Scientific, Landsmeer, The Netherlands). The quality (RIN value) and quantity of the RNA were determined by high-throughput Caliper GX LabChip RNA kit (Caliper).
(§3) Ambion Illumina Total Prep RNA kit was used to transcribe 300 ng RNA to cRNA according to the manufacturer’s instructions. A total of 750 ng of cRNA was hybridized at 58 °C for 16 h to the Illumina HumanHT-12 v4 Expression BeadChips. BeadChips were scanned using Iscan software, and IDAT files were generated (Illumina, San Diego, CA, USA).
(§4) GenomeStudio software (Illumina) was used to read the IDAT files and generate raw expression values. The ArrayAnalysis web service (www.arrayanalysis.org/) was used for further preprocessing the data, which uses lumi R package (Eijssen et al. [2013]). Raw gene expression data were background-corrected (bgAdjust), variance-stabilized (VST) and normalized by quantile normalization. After normalization, the data were corrected for batch differences owing to RNA isolation and hybridization using the ComBat method implemented in the swamp package in R (Lauss et al. [2013]). Differentially expressed genes in slices exposed to the cholestatic drugs in the presence of bile acids versus the slices exposed to vehicle (DMSO) in the presence of bile acids were identified using the unpaired moderated t test in the limma package (Ritchie et al. [2015]). Genes that are regulated with a criterion of fold change of 1.5 (≤ or ≥1.5), and FDR-corrected p value ≤0.05 (Benjamini and Hochberg method) were chosen for pathway analysis. To compare our data with the scarcely available human in vivo data, human in vivo late-stage cholestasis data were downloaded from the Gene Expression Omnibus database (GSE46960).

[2] = test system: Genes involved in the FXR pathway; test: Microarray gene expression in human PCLS exposed to cholestatic drugs: FXR pathway genes; settings: 30 μM; 24 h; 60 μM bile acid mix
Method: as §1, §2, §3, §4

[3] = test system: Genes involved in unfolded protein response (UPR); test: Microarray gene expression in human PCLS exposed to cholestatic drugs: unfolded protein response genes; type: cell-based; settings: 30 μM; 24 h; 60 μM bile acid mix
Method: as §1, §2, §3, §4

[4] = test system: human precision-cut liver slices (PCLS); test: Transcriptomics of human PCLS: differentially regulated genes; type: cell-based; settings: fold change of 1.5 and adjusted p value 0.05, 24 h, 60 μM bile acid mix
Method: as §1, §2, §3, §4

[5] = adult patients, therapeutic dose, systemic blood; no reference given; cited from earlier work
[6] = C max in systemic blood of adult patients after a therapeutic dose; settings: highest toxic concentration tested in human PCLS vs C max in adult patients

## CN(C)CCCN1c2ccccc2Sc2ccc(Cl)cc21 [CP, chlorpromazine]
[1]
  ABCB4 fold change: −2.0
  ABCB11 fold change: −1.4
  ABCC3 fold change: −1.1
  ABCG5 fold change: −1.4
  ABCG8 fold change: −1.7
  CYP8B1 fold change: −2.3
  CYP27A1 fold change: −1.3
  GCGR fold change: −1.7
  IL1B fold change: −1.1
  IL1RL1 fold change: 1.4
  IL1RN fold change: 1.3
  IRAK2 fold change: 1.2
  JUN fold change: 1.5
  NR0B2 fold change: −1.6
  NR1H3 fold change: −1.2
  NR1H4 fold change: −1.2
  PPRC1 fold change: 1.2
  RXRA fold change: −1.3
  SLC22A7 fold change: −2.6
  TNFRSF1B fold change: 1.0
[2]
  ABCB4 fold change: −2.0
  ABCB11 fold change: −1.7
  ABCG5 fold change: −1.4
  ABCG8 fold change: −1.7
  APOC2 fold change: −1.4
  APOC4 fold change: −1.8
  APOF fold change: −1.9
  BAAT fold change: −1.5
  C3 fold change: −1.5
  CYP8B1 fold change: −2.3
  CYP27A1 fold change: −1.1
  FASN fold change: −1.4
  FBP1 fold change: −2.0
  FETUB fold change: −1.8
  FGA fold change: −1.7
  ITIH4 fold change: −1.4
  KNG1 fold change: −1.8
  NR0B2 (SHP) fold change: −1.3
  NR1H3 (LXR) fold change: −1.3
  NR1H4 (FXR) fold change: −1.4
  PON1 fold change: −1.9
  RXRA fold change: −1.1
  SCARB1 fold change: −1.6
  SDC1 fold change: −1.4
  SERPINF2 fold change: −1.5
  SLC22A7 fold change: −2.6
  SLC51B fold change: −1.9
  SULT2A1 fold change: −1.9
[3]
  ATF4 fold change: 1.5
  DDIT3 (CHOP) fold change: 1.2
  DNAJB9 fold change: 1.0
  ERN1 fold change: 1.0
  HSPA9 fold change: 1.1
  HSPH1 fold change: 1.0
  INSIG1 fold change: 1.3
  NFE2L2 fold change: 1.1
  SYVN1 fold change: 1.0
[4]; 10 μM
  Number of regulated genes: 1
[4]; 20 μM
  Number of regulated genes: 2
[4]; 30 μM
  Number of regulated genes: 61
[5]
  Cmax: 420 nM
[6]
  toxic concentration used in PCLS study relative to C max: ~ 70 × C max
